Columns and labels:
[1] = test system: antibodies in sera from SARS patients (sera 1a, 1b, 2, 6, 37, 62, London, SARS-yellow, SARS-green); format: binding, human; design: Binding of serum 6 to linear peptides of protein X1 of SARS-CoV Urbani / Binding of serum 37 to linear peptides of protein X1 of SARS-CoV Urbani / Binding of serum 6 to looped/cyclic peptide (PEPSCAN-ELISA) / Binding of serum 37 to looped/cyclic peptide (PEPSCAN-ELISA) / Binding of serum 37 to looped/cyclic peptides of protein X1 of SARS-CoV Urbani / Binding of serum 6 to linear peptides of protein X2 / Binding of serum 37 to linear peptides of protein X2 / Binding of serum 37 to looped/cyclic peptides of protein X2 of SARS-CoV Urbani / Binding of serum 6 to linear peptides of protein M of SARS-CoV Urbani / Binding of serum 37 to linear peptides of protein M of SARS-CoV Urbani / Binding of serum 6 to looped/cyclic peptides of protein M of SARS-CoV Urbani / Binding of serum 37 to looped/cyclic peptides of protein M of SARS-CoV Urbani / Binding of serum 6 to linear peptides of protein X3 of SARS-CoV Urbani / Binding of serum 37 to linear peptides of protein X3 of SARS-CoV Urbani / Binding of serum 37 to looped/cyclic peptides of protein X3 of SARS-CoV Urbani / Binding of serum 6 to linear peptides of protein X4 of SARS-CoV Urbani / Binding of serum 37 to linear peptides of protein X4 of SARS-CoV Urbani / Binding of serum 37 to looped/cyclic peptides of protein X4 of SARS-CoV Urbani / Binding of serum 6 to linear peptides of protein X5 of SARS-CoV Urbani / Binding of serum 37 to linear peptides of protein X5 of SARS-CoV Urbani / Binding of serum 37 to looped/cyclic peptides of protein X5 of SARS-CoV Urbani / Binding of serum 6 to linear peptides of protein N of SARS-CoV Urbani / Binding of serum 37 to linear peptides of protein N of SARS-CoV Urbani / Binding of serum 6 to linear peptide (PEPSCAN-ELISA) / Binding of serum 1a to looped/cyclic peptides of protein N of SARS-CoV Urbani / Binding of serum 1b to looped/cyclic peptides of protein N of SARS-CoV Urbani / Binding of serum 2 to looped/cyclic peptides of protein N of SARS-CoV Urbani / Binding of serum 6 to looped/cyclic peptides of protein N of SARS-CoV Urbani / Binding of serum 37 to looped/cyclic peptides of protein N of SARS-CoV Urbani / Binding of serum 62 to looped/cyclic peptides of protein N of SARS-CoV Urbani / Binding of serum London to looped/cyclic peptides of protein N of SARS-CoV Urbani / Binding of serum SARS-green to looped/cyclic peptides of protein N of SARS-CoV Urbani: unit not given here
[2] = test system: control sera (pooled serum of ten healthy LUMC hospital workers; commercial negative donor pooled serum from the Dutch bloodbank); format: binding, human; design: Binding of Control serum LUMC to linear peptides / Binding of Control serum Blood-bank to linear peptides / Binding of Control serum LUMC to looped peptides / Binding of Control Serum Blood-Bank to Looped peptides / Binding of Control serum LUMC to linear peptides of the protein M of SARS-CoV Urbani / Binding of Control serum Blood-bank to linear peptides of the protein M of SARS-CoV Urbani / Binding of Control serum LUMC to looped peptides of the protein M of SARS-CoV Urbani / Binding of Control Serum Blood-Bank to Looped peptides of the protein M of SARS-CoV Urbani: unit not given here
[3] = test system: rabbit serum obtained by immunizing a rabbit with the SARS-CoV strain Frankfurt 1; format: binding; design: Binding of a rabbit serum to linear peptides / Binding of a rabbit serum to looped peptides / Rabbit serum linear peptides / Rabbit serum looped peptides / Binding of a rabbit serum to linear peptides of protein N of SARS-CoV Urbani (Rabbit serum linear peptides) / Binding of a rabbit serum to looped/cyclic peptides of protein N of SARS-CoV Urbani (Rabbit serum looped peptides): unit not given here

SLYMAISPKFTTSLS
Binding of serum 1a to linear peptides of protein X2 [1]: 0.7 | Binding of serum 1a to looped/cyclic peptides of protein X2 of SARS-CoV Urbani [1]: 0.6 | Binding of serum 1b to linear peptides of protein X2 [1]: 0.5 | Binding of serum 1b to looped/cyclic peptides of protein X2 of SARS-CoV Urbani [1]: 0.6 | Binding of serum 2 to linear peptides of protein X2 [1]: 0.5 | Binding of serum 2 to looped/cyclic peptides of protein X2 of SARS-CoV Urbani [1]: 0.3 | Binding of serum 6 to linear peptides of protein X2 [1]: 0.4 | Binding of serum 6 to looped/cyclic peptides of protein X2 of SARS-CoV Urbani [1]: 0.4 | Binding of serum 37 to linear peptides of protein X2 [1]: 0.6 | Binding of serum 37 to looped/cyclic peptides of protein X2 of SARS-CoV Urbani [1]: 0.4 | Binding of serum 62 to linear peptides of protein X2 [1]: 0.6 | Binding of serum 62 to looped/cyclic peptides of protein X2 of SARS-CoV Urbani [1]: 0.5 | Binding of serum London to linear peptides of protein X2 [1]: 0.6 | Binding of serum London to looped/cyclic peptides of protein X2 of SARS-CoV Urbani [1]: 0.3 | Binding of serum SARS-green to linear peptides of protein X2 [1]: 0.6 | Binding of serum SARS-green to looped/cyclic peptides of protein X2 of SARS-CoV Urbani [1]: 0.5 | Binding of serum SARS-yellow to linear peptides of protein X2 [1]: 0.6 | Binding of serum SARS-yellow to looped/cyclic peptides of protein X2 of SARS-CoV Urbani [1]: 0.6 | Binding of Control Serum Blood-Bank to Looped peptides [2]: 0.6 | Binding of Control serum Blood-bank to linear peptides [2]: 0.7 | Binding of Control serum LUMC to linear peptides [2]: 0.6 | Binding of Control serum LUMC to looped peptides [2]: 0.9 | Binding of a rabbit serum to linear peptides [3]: 0.2 | Binding of a rabbit serum to looped peptides [3]: 0.3

RGTIVTRPLMESELV
Binding of serum 1a to linear peptides of protein M of SARS-CoV Urbani [1]: 0.9 | Binding of serum 1b to linear peptides of protein M of SARS-CoV Urbani [1]: 0.6 | Binding of serum 2 to linear peptides of protein M of SARS-CoV Urbani [1]: 0.6 | Binding of serum 6 to linear peptides of protein M of SARS-CoV Urbani [1]: 0.4 | Binding of serum 37 to linear peptides of protein M of SARS-CoV Urbani [1]: 0.9 | Binding of serum 62 to linear peptides of protein M of SARS-CoV Urbani [1]: 0.9 | Binding of serum London to linear peptides of protein M of SARS-CoV Urbani [1]: 0.3 | Binding of serum SARS-green to linear peptides of protein M of SARS-CoV Urbani [1]: 0.3 | Binding of serum SARS-yellow to linear peptides of protein M of SARS-CoV Urbani [1]: 0.1 | Recognition of the peptide by sera of SARS-CoV infected individuals, and form (linear, looped/cyclic) in which it is recognized [1]: recognized in looped/cyclic form | Binding of Control Serum Blood-Bank to Looped peptides of the protein M of SARS-CoV Urbani [2]: 0.6 | Binding of Control serum Blood-bank to linear peptides of the protein M of SARS-CoV Urbani [2]: 0.7 | Binding of Control serum LUMC to linear peptides of the protein M of SARS-CoV Urbani [2]: 0.4 | Binding of Control serum LUMC to looped peptides of the protein M of SARS-CoV Urbani [2]: 0.8 | Rabbit serum linear peptides [3]: 0.3 | Rabbit serum looped peptides [3]: 0.3

YLYALIYFLQCINAC
Binding of serum 1a to linear peptides of protein X1 of SARS-CoV Urbani [1]: 0.7 | Binding of serum 1a to looped/cyclic peptide (PEPSCAN-ELISA) [1]: 0.4 | Binding of serum 1b to linear peptides of protein X1 of SARS-CoV Urbani [1]: 0.5 | Binding of serum 1b to looped/cyclic peptide (PEPSCAN-ELISA) [1]: 0.2 | Binding of serum 2 to linear peptides of protein X1 of SARS-CoV Urbani [1]: 0.5 | Binding of serum 2 to looped/cyclic peptide (PEPSCAN-ELISA) [1]: 0.3 | Binding of serum 6 to linear peptides of protein X1 of SARS-CoV Urbani [1]: 0.5 | Binding of serum 6 to looped/cyclic peptide (PEPSCAN-ELISA) [1]: 0.2 | Binding of serum 37 to linear peptides of protein X1 of SARS-CoV Urbani [1]: 0.6 | Binding of serum 37 to looped/cyclic peptide (PEPSCAN-ELISA) [1]: 0.4 | Binding of serum 62 to linear peptides of protein X1 of SARS-CoV Urbani [1]: 0.5 | Binding of serum 62 to looped/cyclic peptide (PEPSCAN-ELISA) [1]: 0.4 | Binding of serum London to linear peptides of protein X1 of SARS-CoV Urbani [1]: 0.4 | Binding of serum London to looped/cyclic peptide (PEPSCAN-ELISA) [1]: 0.2 | Binding of serum SARS-green to linear peptides of protein X1 of SARS-CoV Urbani [1]: 0.2 | Binding of serum SARS-green to looped/cyclic peptide (PEPSCAN-ELISA) [1]: 0.1 | Binding of serum SARS-yellow to linear peptides of protein X1 of SARS-CoV Urbani [1]: 0.3 | Binding of serum SARS-yellow to looped/cyclic peptide (PEPSCAN-ELISA) [1]: 0.2 | Binding of Control Serum Blood-Bank to Looped peptides [2]: 0.5 | Binding of Control serum Blood-bank to linear peptides [2]: 0.5 | Binding of Control serum LUMC to linear peptides [2]: 0.6 | Binding of Control serum LUMC to looped peptides [2]: 0.5 | Binding of a rabbit serum to linear peptides [3]: 0.1 | Binding of a rabbit serum to looped peptides [3]: 0.4

From US20070128217A1 (priority 2003, published 2007)
